ChEMBL document CHEMBL1151717, “In vivo active aldosterone synthase inhibitors with improved selectivity: lead optimization providing a series of pyridine substituted 3,4-dihydro-1H-quinolin-2-one derivatives” (J Med Chem, 2008)

Legend:
[1] = target: T1, CYP19 (aromatase) (Homo sapiens, UniProt P11511); experiment: Inhibition of human placental CYP19 at 500 nM; assay type: functional
T1 sequence (P11511 whole entry): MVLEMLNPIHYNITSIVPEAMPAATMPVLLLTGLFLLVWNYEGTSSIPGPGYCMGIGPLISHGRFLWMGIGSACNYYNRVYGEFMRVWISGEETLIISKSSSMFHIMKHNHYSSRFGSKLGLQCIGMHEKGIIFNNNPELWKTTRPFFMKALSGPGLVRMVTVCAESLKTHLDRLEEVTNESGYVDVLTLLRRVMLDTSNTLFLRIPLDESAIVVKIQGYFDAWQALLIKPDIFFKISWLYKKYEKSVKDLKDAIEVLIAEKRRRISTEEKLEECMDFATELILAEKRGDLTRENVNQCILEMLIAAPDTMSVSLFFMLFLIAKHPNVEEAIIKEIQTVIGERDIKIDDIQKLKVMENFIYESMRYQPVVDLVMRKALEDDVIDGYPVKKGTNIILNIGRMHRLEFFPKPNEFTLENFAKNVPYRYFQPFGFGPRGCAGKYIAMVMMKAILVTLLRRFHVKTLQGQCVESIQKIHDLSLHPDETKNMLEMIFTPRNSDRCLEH

[2] = target: T2, CYP1A2 (Homo sapiens, UniProt P05177); experiment: Inhibition of human recombinant CYP1A2 expressed in baculovirus-infected insect microsomes at 2 uM; assay type: ADME, Microsome
T2 sequence (P05177 whole entry): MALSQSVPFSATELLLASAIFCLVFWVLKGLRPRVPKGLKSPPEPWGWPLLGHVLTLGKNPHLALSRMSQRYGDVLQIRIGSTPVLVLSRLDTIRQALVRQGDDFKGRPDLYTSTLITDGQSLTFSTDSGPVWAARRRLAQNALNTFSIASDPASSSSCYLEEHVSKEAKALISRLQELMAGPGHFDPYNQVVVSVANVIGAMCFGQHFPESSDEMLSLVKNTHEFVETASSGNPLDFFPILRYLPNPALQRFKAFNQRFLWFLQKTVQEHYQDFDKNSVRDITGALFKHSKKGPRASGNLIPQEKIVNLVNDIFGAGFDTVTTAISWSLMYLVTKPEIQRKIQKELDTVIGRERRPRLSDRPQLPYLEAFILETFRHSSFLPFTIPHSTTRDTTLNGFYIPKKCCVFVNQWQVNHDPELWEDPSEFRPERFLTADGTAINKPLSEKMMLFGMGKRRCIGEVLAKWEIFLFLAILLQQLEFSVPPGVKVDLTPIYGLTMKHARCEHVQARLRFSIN

[3] = target: T3, Cytochrome P450 2B6 (Homo sapiens, UniProt P20813); experiment: Inhibition of human recombinant CYP2B6 expressed in baculovirus-infected insect microsomes; assay type: ADME, Microsome
T3 sequence (P20813 whole entry): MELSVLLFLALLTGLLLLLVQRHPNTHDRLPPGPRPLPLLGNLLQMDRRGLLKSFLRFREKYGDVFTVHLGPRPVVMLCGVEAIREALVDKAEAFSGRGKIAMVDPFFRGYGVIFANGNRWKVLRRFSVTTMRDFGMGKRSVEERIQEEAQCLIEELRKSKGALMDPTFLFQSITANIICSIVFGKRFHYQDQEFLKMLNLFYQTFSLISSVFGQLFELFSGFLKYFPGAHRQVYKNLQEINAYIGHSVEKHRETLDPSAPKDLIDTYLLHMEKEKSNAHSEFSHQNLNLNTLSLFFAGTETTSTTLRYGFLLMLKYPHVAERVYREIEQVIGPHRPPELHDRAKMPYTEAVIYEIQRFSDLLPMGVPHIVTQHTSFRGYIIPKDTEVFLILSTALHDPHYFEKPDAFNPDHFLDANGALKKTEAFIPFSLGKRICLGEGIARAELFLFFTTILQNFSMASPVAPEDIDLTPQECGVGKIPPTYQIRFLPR

[4] = target: Cytochrome P450 2C9 (Homo sapiens, UniProt P11712); experiment: Inhibition of human recombinant CYP2C9 expressed in baculovirus-infected insect microsomes; assay type: ADME, Microsome
[5] = target: Cytochrome P450 2D6 (Homo sapiens, UniProt P10635); experiment: Inhibition of human recombinant CYP2D6 expressed in baculovirus-infected insect microsomes; assay type: ADME, Microsome; conditions: read-out: IC50
[6] = target: Cytochrome P450 3A4 (Homo sapiens, UniProt P08684); experiment: Inhibition of human recombinant CYP3A4 expressed in baculovirus-infected insect microsomes; assay type: ADME, Microsome
[7] = Protein binding in rat plasma at 3 uM after 1 hr; assay type: ADME, cell-free; conditions: read-out: PPB (converted)
[8] = Protein binding in human plasma at 3 uM after 1 hr; assay type: ADME, cell-free; conditions: read-out: PPB (converted)
[9] = Terminal half life in Wistar rat at 5 mg/kg, po by cassette dosing; assay type: ADME, organism-based; design: dose 5 mg/kg, route oral; conditions: in vivo, read-out: beta t1/2 (converted)
[10] = Terminal half life in Wistar rat at 25 mg/kg, po; assay type: ADME, organism-based; design: dose 25 mg/kg, route oral; conditions: in vivo, read-out: beta t1/2 (converted)
[11] = Terminal half life in Wistar rat at 1 mg/kg, iv; assay type: ADME, organism-based; design: dose 1 mg/kg, route intravenous; conditions: in vivo, read-out: beta t1/2 (converted)
[12] = Tmax in Wistar rat at 5 mg/kg, po by cassette dosing; assay type: ADME, organism-based; design: dose 5 mg/kg, route oral; conditions: in vivo
[13] = Tmax in Wistar rat at 25 mg/kg, po; assay type: ADME, organism-based; design: dose 25 mg/kg, route oral; conditions: in vivo
[14] = Cmax in Wistar rat at 5 mg/kg, po by cassette dosing; assay type: ADME, organism-based; design: dose 5 mg/kg, route oral; conditions: in vivo
[15] = Cmax in Wistar rat at 25 mg/kg, po; assay type: ADME, organism-based; design: dose 25 mg/kg, route oral; conditions: in vivo
[16] = AUC (0 to infinity) in Wistar rat at 5 mg/kg, po by cassette dosing; assay type: ADME, organism-based; design: time infinity, dose 5 mg/kg, route oral; conditions: plasma
[17] = AUC (0 to infinity) in Wistar rat at 25 mg/kg, po; assay type: ADME, organism-based; design: time infinity, dose 25 mg/kg, route oral; conditions: plasma
[18] = AUC (0 to infinity) in Wistar rat at 1 mg/kg, iv; assay type: ADME, organism-based; design: time infinity, dose 1 mg/kg, route intravenous; conditions: plasma
[19] = target: T4, Cytochrome P450 1A2 (Homo sapiens, UniProt P05177)
T4 sequence (P05177 whole entry): T2 sequence (P05177 whole entry)

[20] = target: T5, CYP17 (Homo sapiens, UniProt P05093); experiment: in vitro; conditions: human CYP17 expressed in Escherichia coli
T5 sequence (P05093 whole entry): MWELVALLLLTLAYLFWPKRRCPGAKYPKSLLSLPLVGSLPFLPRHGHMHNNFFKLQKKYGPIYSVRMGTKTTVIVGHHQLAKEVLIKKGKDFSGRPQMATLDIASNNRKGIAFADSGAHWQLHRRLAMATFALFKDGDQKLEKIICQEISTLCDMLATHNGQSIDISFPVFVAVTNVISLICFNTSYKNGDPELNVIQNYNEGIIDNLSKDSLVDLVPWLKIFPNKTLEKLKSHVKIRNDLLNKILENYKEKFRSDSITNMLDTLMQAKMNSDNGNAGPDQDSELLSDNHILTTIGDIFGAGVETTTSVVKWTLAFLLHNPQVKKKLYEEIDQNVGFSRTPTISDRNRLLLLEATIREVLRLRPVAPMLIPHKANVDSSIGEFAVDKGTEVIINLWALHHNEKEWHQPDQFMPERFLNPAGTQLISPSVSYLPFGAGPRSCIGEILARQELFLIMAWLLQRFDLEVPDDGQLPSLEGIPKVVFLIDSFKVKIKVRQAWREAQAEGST
Description: Inhibition of human CYP17 expressed in Escherichia coli at 2.5 uM

[21] = Oral bioavailability in Wistar rat at 25 mg/kg; conditions: in vivo

Chain of Cytochrome P450 2D6 (P10635 whole entry): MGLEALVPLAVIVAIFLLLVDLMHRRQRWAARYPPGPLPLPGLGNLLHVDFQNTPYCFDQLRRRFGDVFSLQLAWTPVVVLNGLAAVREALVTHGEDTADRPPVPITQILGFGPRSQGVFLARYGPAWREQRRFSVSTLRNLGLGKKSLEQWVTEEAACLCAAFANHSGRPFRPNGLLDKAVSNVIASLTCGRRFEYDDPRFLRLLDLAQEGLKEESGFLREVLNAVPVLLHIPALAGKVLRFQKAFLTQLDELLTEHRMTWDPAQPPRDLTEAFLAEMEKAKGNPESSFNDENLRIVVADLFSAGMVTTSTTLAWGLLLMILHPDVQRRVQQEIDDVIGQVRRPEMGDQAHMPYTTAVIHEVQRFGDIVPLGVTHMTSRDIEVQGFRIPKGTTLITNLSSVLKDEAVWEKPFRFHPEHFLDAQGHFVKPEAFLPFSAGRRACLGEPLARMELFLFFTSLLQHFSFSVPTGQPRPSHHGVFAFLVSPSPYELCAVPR
Chain of Cytochrome P450 2C9 (P11712 whole entry): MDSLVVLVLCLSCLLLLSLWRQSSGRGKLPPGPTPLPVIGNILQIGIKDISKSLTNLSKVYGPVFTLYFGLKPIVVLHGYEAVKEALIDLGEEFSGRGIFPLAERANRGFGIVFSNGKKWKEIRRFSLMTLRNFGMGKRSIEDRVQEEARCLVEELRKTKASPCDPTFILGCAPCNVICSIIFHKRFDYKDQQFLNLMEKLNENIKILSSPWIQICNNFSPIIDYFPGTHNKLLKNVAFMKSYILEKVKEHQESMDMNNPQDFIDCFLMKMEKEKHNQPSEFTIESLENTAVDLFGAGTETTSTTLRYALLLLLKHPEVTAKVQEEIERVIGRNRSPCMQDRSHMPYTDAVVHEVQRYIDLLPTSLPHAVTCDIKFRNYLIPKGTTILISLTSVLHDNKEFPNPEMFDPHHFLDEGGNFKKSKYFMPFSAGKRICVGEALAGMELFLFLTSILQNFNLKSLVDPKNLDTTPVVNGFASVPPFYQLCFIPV
Chain of Cytochrome P450 3A4 (P08684 whole entry): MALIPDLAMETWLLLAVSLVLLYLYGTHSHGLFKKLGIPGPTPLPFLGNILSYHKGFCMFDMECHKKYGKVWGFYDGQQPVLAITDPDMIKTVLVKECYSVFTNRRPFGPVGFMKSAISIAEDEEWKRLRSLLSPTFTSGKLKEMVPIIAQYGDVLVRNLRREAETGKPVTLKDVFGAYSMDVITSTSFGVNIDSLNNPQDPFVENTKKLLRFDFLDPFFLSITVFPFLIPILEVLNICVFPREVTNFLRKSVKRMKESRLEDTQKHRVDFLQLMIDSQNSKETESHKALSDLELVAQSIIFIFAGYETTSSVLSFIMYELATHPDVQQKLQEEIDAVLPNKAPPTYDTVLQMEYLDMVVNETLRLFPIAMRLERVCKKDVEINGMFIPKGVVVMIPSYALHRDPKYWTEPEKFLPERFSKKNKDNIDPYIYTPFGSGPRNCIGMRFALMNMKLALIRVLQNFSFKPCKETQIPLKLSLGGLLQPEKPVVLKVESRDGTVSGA

Compound `O=C1CCc2cc(-c3cccnc3)ccc2N1` has an inhibition at 0.5 µM [1] of 21%, an inhibition at 2 µM [2] of 50% and an IC50 [3] of less than 50 µM. The IC50 [4] was 58.9 µM, the IC50 [5] was 171 µM and the IC50 [6] was 127 µM. The fraction unbound at 1 h, 3 µM [7] was 0.4, the fraction unbound at 1 h, 3 µM [8] was 0.39 and the half-life [9] was 228 min. The half-life [10] was 72 min, the half-life [11] was 102 min and the Tmax [12] was 4 h. The Tmax [13] was 1 h, the Cmax [14] was 261 ng/mL and the Cmax [15] was 1540 ng/mL. For the same compound, the AUC(0-inf) [16] was 1750 ng·h/mL, the AUC(0-inf) [17] was 4760 ng·h/mL and the AUC(0-inf) [18] was 270 ng·h/mL. The IC50 [19] was 1950 nM, the inhibition at 2.5 µM [20] was 41% and the bioavailability [21] was 71%.
